According to the CombiSolv-Exp solvation set (Vermeire and Green 2021):

Assay: solvent given as SMILES

O=C1c2ccccc2-c2ccccc21
Conditions	solvation free energy, 298 K [kcal/mol]
in CC(C)(C)O	-10.4
in CC(C)CC(C)(C)C	-9.57
in CC(C)CCO	-10.5
in CC(C)CO	-10.3
in CC(C)O	-10.4
in CC(C)OC(C)C	-10.5
in CCC(C)O	-10.5
in CCCCC(CC)CO	-10.5
in CCCCCC	-9.78
in CCCCCCC	-9.83
in CCCCCCCC	-9.86
in CCCCCCCCC=CCCCCCCCC(=O)OCC(COC(=O)CCCCCCCC=CCCCCCCCC)OC(=O)CCCCCCCC=CCCCCCCCC	-10.5
in CCCCCCCCCC	-9.9
in CCCCCCCCCCO	-10.6
in CCCCCCCCO	-10.7
in CCCCCCCO	-10.7
in CCCCCCO	-10.6
in CCCCCO	-10.6
in CCCCO	-10.6
in CCCO	-10.6
in CCO	-10.6
in CO	-10.6
in COC(C)(C)C	-11
in ClC(Cl)(Cl)Cl	-11.5
in ClCCl	-12
in Fc1ccccc1	-11.7
in O	-5.78

CCCC(=O)c1c(C)[nH]n(-c2ccccc2)c1=O
Conditions	solvation free energy, 298 K [kcal/mol]
in O	-9.51
